Earlier results in patent US8187629B2, “Non-lamellar compositions of DOPE and P80” (Camurus AB, priority 2004, dated 2012).

Conditions: room temperature; greater at physiological temperature

Question: Which equilibrium water solubility does the source give for `CCCCCCCC/C=C\CCCCCCCC(=O)OCC(O)CO` (stereo not shown) [GMO, glycerol monooleate] here?
Answer: at least 10^−7 M
